{"source": "patent US20060127400A1", "about": "“Activation of regulatory T cells by alpha-melanocyte stimulating hormone” (THE SCHEPENS EYE RESEARCH INSTITUTE, INC., priority 1999, published 2006)", "test_system": "primed Th1 cells", "assay": "in vitro regulatory T cell activity assay (IFN-γ of freshly activated primed Th1 cells in coculture)", "format": "cell-based, mouse (BALB/c)", "experimental": "Assay For In Vitro Regulatory T Cell Activity. The α-MSH-treated TCR-stimulated T cells, as described above, were cultured for 48 hours. The plate was spun down at 250×g for 10 minutes and supernatant discarded. Freshly isolated, enriched in vivo primed Th1 cells (4×10^6 cells/ml) mixed with 2C11 (1 μg/ml) were added (200 μl) to the wells of the α-MSH pre-treated, TCR-stimulated T cells and incubated for 48 hours. The culture supernatant was assayed for IFN-γ by sandwich ELISA. For long term cultures, primed T cells were TCR-stimulated in the presence of α-MSH for 48 hours. The plate was centrifuged and supernatant was exchanged for 200 μl of 2C11 (1 μg/ml) in fresh media, no x-MSH. The cultures were incubated for 72 hours and the conditioned media was again exchanged for fresh media and 2C11 antibody. The cultures were incubated for an additional 48 hours, centrifuged, supernatant discarded, and added were fresh in vivo primed Th1 cells and 2C11 antibody. Soluble TGF-β receptor II (sTGF-βRII, R&D Systems) was added to some of the cultures. These cultures were incubated for 48 hours and the culture supernatant was assayed for IFN-γ by sandwich ELISA.\nPrimed T cells (4×10^5 cells) were enriched and activated with anti-CD3 in the presence (α-MSH+anti-CD3) or absence (+anti-CD3) of α-MSH (30 pg/ml). After 48 hours of incubation the cells were mixed with freshly enriched primed Th1 cells (4×10^5 cells) and anti-CD3 antibody and cultured for 48 hours. The culture supernatant was assayed for IFN-γ by sandwich ELISA. Results are presented as IFN-γ pg/ml±SEM of eight independent experiments.\nIn addition, T cells initial TCR-stimulated in the presence of α-MSH and subsequently restimulated twice (Day 2 and Day 5) with anti-TCR antibody in the absence of α-MSH, still suppressed IFN-γ production by freshly activated primed Th1 cells (FIG. 6). […] Primed T cells (4×10^5 cells) were enriched and activated with anti-CD3 antibody in the presence of 30 pg/ml α-MSH (α-MSH+anti-CD3) or absence of α-MSH (+anti-CD3). After 48 hours of incubation the cells were centrifuged and resuspended in fresh media with anti-CD3 antibodies and incubated for 72 hours (day 5). The cells were again washed and re-stimulated with anti-CD3 and incubated for an additional 48 hours (day 7). After the final incubation the treated T cells (4×10^5 cells) were mixed with freshly enriched primed Th1 cells (4×10^5 cells) and anti-CD3 antibody and cultured for 48 hours. The culture supernatant was assayed for IFN-γ by sandwich ELISA. Results are presented as IFN-γ pg/ml±SEM of eight independent experiments. […] Therefore, α-MSH mediates induction of functionally active, regulatory Th3 cells.\nTGF-β and α-MSH induce regulatory T cell activity. Primed T cells were TCR-stimulated in the presence or absence of 30 pg/ml α-MSH with TGF-β1 or TGF-β2 (5.0 ng/ml) added 4 hours after TCR-stimulation. The treated T cells (Regulatory T cells) were added to cultures of freshly activated primed T cells. Culture supernatants were assayed for IFN-γ 48 hours after addition of treated T cells. Data are presented as percent suppression±SEM of IFN-γ produced by freshly activated T cells with no added regulatory cells, from eight independent experiments.", "note": "No end group written: not given here."}
{"substance": "α-melanocyte stimulating hormone (SYSMEHFRWGKPV; not fully specified; ends and bridges not checked; UniProt P01189 138-150, looked up) [α-MSH, synthetic α-MSH (Peninsula Laboratories); thirteen-amino acid neuropeptide derived from POMC]", "values": [{"measurement": "IFN-γ in cocultures with T cells initially activated in the presence of α-MSH, long term", "setting": "α-MSH 30 pg/ml only at first stimulation, restimulated Day 2 and Day 5 without α-MSH, then coculture 48 h", "result": "significantly (p=0.05) suppressed"}, {"measurement": "induction of regulatory T cell activity (suppression of IFN-γ of other Th1 cells), factor individually", "setting": "α-MSH 30 pg/ml or TGF-β 5.0 ng/ml", "result": "induced regulatory T cell activity"}]}
